Laboratory results as given in patent publication US5698222A, “Calcium supplement” (Abbott Laboratories, priority 1995, dated 1997).
Counter-ions that a name gives are not always drawn. Like-named read-outs stand apart in the source and are kept apart here.

What was measured:
[1] = values from Whiting article; cited from earlier work
[2] = titratable acidity of calcium sources; assay type: physicochemical; conditions: pH 3.5 raised to pH 8.3, 40 g sample
From the text: Acidity is desired in the liquid nutritional product of the present invention for several reasons such as: to maintain the calcium salt solubility, to complement flavor, to control microbial growth, and to enhance the role of preservatives, specifically potassium benzoate or sodium benzoate. On the other hand, too much acidity can result in increased tartness and sourness that make the product undesirable from a sensory point of view. […] Titratable acidity is an indication of the total acidity of a beverage.

[3] = large amounts; cited from earlier work
[4] = rats, three weeks, as compared to a control; cited from earlier work
[5] = without aluminum-containing drugs; cited from earlier work
[6] = Protocol: In this evaluation solubility was determined by a visual examination.
[7] = cited from earlier work
[8] = low birth weight infants; cited from earlier work
[9] = piglets; cited from earlier work

Q: Which “Aluminum Content” value [1] does the source give for `O=C(O)O` [CaCO3 (from Dolomite)] here?
A: 171-315 parts per million (ppm)

Q: Which “Aluminum Content” value [1] does the source give for `O=C(O)O` [CaCO3 (from fossil shell)] here?
A: 4,400 parts per million (ppm)

Q: Which Titratable acidity [2] does the source give for `O=C(O)O` [Calcium Carbonate, calcium carbonate] here?
A: 61.4 mL of 0.1N NaOH

Q: What about the adverse effects [3] of the same compound?
A: can lead to constipation and abdominal distention

Q: With `[Ca+2].[Cl-].[Cl-]` [Calcium Chloride, calcium chloride] as the compound, how does the Titratable acidity [2] read?
A: 0.7 mL of 0.1N NaOH

Q: For `O=C(O)CC(O)(CC(=O)O)C(=O)O` [Calcium Citrate, calcium citrate], which Titratable acidity [2] is on record?
A: 57.5 mL of 0.1N NaOH

Q: And the relative calcium bioavailability [4]?
A: 110%

Q: And the aluminum toxicity risk [5]?
A: does not pose a risk of aluminum toxicity

Q: With `[Ca+2].[OH-].[OH-]` [Calcium Hydroxide, calcium hydroxide] as the compound, how does the Titratable acidity [2] read?
A: 60.6 mL of 0.1N NaOH

Q: For `CC(O)C(=O)O` (centres unmarked) [Calcium Lactate, calcium lactate], which Titratable acidity [2] is on record?
A: 47.1 mL of 0.1N NaOH

Q: With `O=C(O)[C@H](O)[C@@H](O)[C@H](O)[C@H](O)CO` [D-Gluconic-Acid, D-gluconic acid (hemicalcium salt)] as the compound, how does the “solubility at time of manufacture” value ([6]; pH 3.5) read?
A: soluble

Q: And the “solubility at 1 month” value ([6]; pH 5)?
A: partially Soluble

Q: What about the “solubility at time of manufacture” value ([6]; pH 5) of the same compound?
A: soluble

Q: Which results are given for `O=P([O-])([O-])[O-].O=P([O-])([O-])[O-].[Ca+2].[Ca+2].[Ca+2]` [Tricalcium Phosphate, tricalcium phosphate]?
A: Titratable acidity [2]: 48.6 mL of 0.1N NaOH; relative calcium bioavailability [4]: 110%

Q: For `O=P(O)(O)OCC(O)CO` (centres unmarked) [glycerophosphate], which pKf [7] is on record?
A: 6.1

Q: For calcium citrate malate, which Titratable acidity [2] is on record?
A: 53.2 mL of 0.1N NaOH

Q: With calcium glycerophosphate [CaGP] as the compound, how does the Titratable acidity [2] read?
A: 43.5 mL of 0.1N NaOH

Q: What about the “effectiveness as source of calcium in TPN solutions” value [8] of the same compound?
A: as effective as calcium gluconate

Q: What about the “effectiveness as source of calcium in TPN solutions” value [9] of the same compound?
A: as effective as calcium gluconate
